# Legend:
# Assay type in all cases: functional
# [1] = test system: Klebsiella sp.; assay: Antibacterial activity against Klebsiella sp. after 24 hr by agar cup assay
# [2] = test system: Shigella sp.; assay: Antibacterial activity against Shigella sp. after 24 hr by agar cup assay
# [3] = test system: Arthrobacter sp.; assay: Antibacterial activity against Arthrobacter sp. after 24 hr by agar cup assay
# [4] = test system: Proteus mirabilis; assay: Antibacterial activity against Proteus mirabilis after 24 hr by agar cup assay
# [5] = test system: Escherichia coli; assay: Antibacterial activity against Escherichia coli after 24 hr by agar cup assay
# [6] = test system: Bacillus subtilis; assay: Antibacterial activity against Bacillus subtilis after 24 hr by agar cup assay
# [7] = test system: Bacillus subtilis; assay: Antibacterial activity against Bacillus subtilis
# [8] = test system: Escherichia coli; assay: Antibacterial activity against Escherichia coli
# [9] = test system: Proteus vulgaris; assay: Antimicrobial activity against Proteus vulgaris
# [10] = test system: Mycobacterium tuberculosis; assay: Antitubercular activity against Mycobacterium tuberculosis
Compound,MIC [1] [µg/mL],MIC [2] [µg/mL],MIC [3] [µg/mL],MIC [4] [µg/mL],MIC [5] [µg/mL],MIC [6] [µg/mL],MIC [7] [µg/mL],MIC [8] [µg/mL],MIC [9] [µg/mL],MIC [10] [µg/mL]
CCCCCC(C)COC(=O)c1ccncc1 (centres undefined) [2-METHYL HEPTYL ISONICOTINATE],50,60,40,40,70,50,,,,
CCCCC[C@H](C)COC(=O)c1ccncc1 [(S)-2-METHYLHEPTYL ISONICOTINATE],,,,,,,20,20,14,14
NNC(=O)c1ccncc1 [ISONIAZID],250,300,150,200,2520,150,,,,
CCCCC[C@@H](C)COC(=O)c1ccncc1 [ISONICOTINIC ACID 2-METHYL-HEPTYL ESTER],,,,,,,16,16,6,10
CCCCOC(=O)c1ccncc1 [ISONICOTINIC ACID BUTYL ESTER],,,,,,,600,600,500,280
CCCCCCCOC(=O)c1ccncc1 [ISONICOTINIC ACID HEPTYL ESTER],,,,,,,24,24,16,16
CCCCCCOC(=O)c1ccncc1 [ISONICOTINIC ACID HEXYL ESTER],,,,,,,50,50,36,24
CCCCCCCCCCCCCCCCCCOC(=O)c1ccncc1 [ISONICOTINIC ACID OCTADECYL ESTER],,,,,,,600,600,560,320
CCCCCCCCOC(=O)c1ccncc1 [ISONICOTINIC ACID OCTYL ESTER],,,,,,,16,16,6,8
CCCCCOC(=O)c1ccncc1 [ISONICOTINIC ACID PENTYL ESTER],,,,,,,20,20,14,10

# Source: ChEMBL document CHEMBL3045124, “Molecular docking and in silico studies on analogues of 2-methylheptyl isonicotinate with DHDPS enzyme of Mycobacterium tuberculosis” (2013)
